Source: ChEMBL document CHEMBL1201862, “PubChem BioAssay data set” (2004)
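48-hour exposure; five concentrations; linearly interpolated endpoints. Here, GI50 denotes the concentration required for 50% inhibition of growth.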 Active and inactive are the calls of the source. Rule as the data show it: active = GI50 up to about 1.1 µM and inactive = higher.

Legend:
Assay in all cases: NCI anticancer screen, dose series, 48 h
[1] = system: IGROV-1
[2] = system: HOP-18
[3] = system: OVCAR-8
[4] = system: SF-539
[5] = system: NCI-H23
[6] = system: KM12
[7] = system: HCT-116
[8] = system: SW-620
[9] = system: OVCAR-4
[10] = system: DLD-1
[11] = system: HCC 2998
[12] = system: SK-OV-3
[13] = system: 786-0
[14] = system: KM-20L2
[15] = system: CCRF-CEM
[16] = system: LXFL 529
[17] = system: NCI-H522
[18] = system: HOP-92
[19] = system: HL-60
[20] = system: U-251
[21] = system: SK-MEL-5
[22] = system: SR
[23] = system: M14
[24] = system: TK-10
[25] = system: SK-MEL-28
[26] = system: COLO 205
[27] = system: ACHN
[28] = system: A549
[29] = system: DMS-114
[30] = system: SF-268
[31] = system: NCI-H460
[32] = system: Malme-3M
[33] = system: UACC-257
[34] = system: HT-29
[35] = system: UO-31
[36] = system: SNB-78
[37] = system: RPMI-8226
[38] = system: NCI-H226
[39] = system: UACC-62
[40] = system: DMS-273
[41] = system: RXF 393
[42] = system: HOP-62
[43] = system: SNB-75
[44] = system: SK-MEL-2
[45] = system: CAKI-1
[46] = system: HCT-15
[47] = system: A498
[48] = system: SNB-19
[49] = system: MOLT-4
[50] = system: K562
[51] = system: OVCAR-5
[52] = system: LOX IMVI
[53] = system: SF-295
[54] = system: SN12C
[55] = system: EKVX
[56] = system: OVCAR-3
[57] = system: M19-MEL

SMILES: CNC(C)Cc1ccccc1O (stereo unspecified)
- GI50 [1]: > 100 µM (inactive)
- GI50 [2]: > 100 µM (inactive)
- GI50 [3]: > 100 µM (inactive)
- GI50 [4]: > 100 µM (inactive)
- GI50 [5]: > 100 µM (inactive)
- GI50 [6]: > 100 µM (inactive)
- GI50 [7]: > 100 µM (inactive)
- GI50 [8]: > 100 µM (inactive)
- GI50 [9]: > 100 µM (inactive)
- GI50 [10]: > 100 µM (inactive)
- GI50 [11]: > 100 µM (inactive)
- GI50 [12]: > 100 µM (inactive)
- GI50 [13]: > 100 µM (inactive)
- GI50 [14]: > 100 µM (inactive)
- GI50 [15]: > 100 µM (inactive)
- GI50 [16]: > 100 µM (inactive)
- GI50 [17]: > 100 µM (inactive)
- GI50 [18]: > 100 µM (inactive)
- GI50 [19]: > 100 µM (inactive)
- GI50 [20]: > 100 µM (inactive)
- GI50 [21]: > 100 µM (inactive)
- GI50 [22]: > 100 µM (inactive)
- GI50 [23]: > 100 µM (inactive)
- GI50 [24]: > 100 µM (inactive)
- GI50 [25]: > 100 µM (inactive)
- GI50 [26]: > 100 µM (inactive)
- GI50 [27]: > 100 µM (inactive)
- GI50 [28]: > 100 µM (inactive)
- GI50 [29]: > 100 µM (inactive)
- GI50 [30]: > 100 µM (inactive)
- GI50 [31]: > 100 µM (inactive)
- GI50 [32]: > 100 µM (inactive)
- GI50 [33]: > 100 µM (inactive)
- GI50 [34]: > 100 µM (inactive)
- GI50 [35]: > 100 µM (inactive)
- GI50 [36]: > 100 µM (inactive)
- GI50 [37]: > 100 µM (inactive)
- GI50 [38]: > 100 µM (inactive)
- GI50 [39]: > 100 µM (inactive)
- GI50 [40]: > 100 µM (inactive)
- GI50 [41]: > 100 µM (inactive)
- GI50 [42]: > 100 µM (inactive)
- GI50 [43]: > 100 µM (inactive)
- GI50 [44]: > 100 µM (inactive)
- GI50 [45]: > 100 µM (inactive)
- GI50 [46]: 8.71 µM
- GI50 [47]: > 100 µM (inactive)
- GI50 [48]: > 100 µM (inactive)
- GI50 [49]: > 100 µM (inactive)
- GI50 [50]: > 100 µM (inactive)
- GI50 [51]: > 100 µM (inactive)
- GI50 [52]: > 100 µM (inactive)
- GI50 [53]: > 100 µM (inactive)
- GI50 [54]: > 100 µM (inactive)
- GI50 [55]: > 100 µM (inactive)
- GI50 [56]: > 100 µM (inactive)

SMILES: CSc1nc(NC2OC(COC(C)=O)C(OC(C)=O)C(OC(C)=O)C2OC(C)=O)c(/N=C(\C)C(C)=O)c(=O)n1C (stereo unspecified)
- GI50 [1]: > 100 µM (inactive)
- GI50 [2]: > 100 µM (inactive)
- GI50 [3]: > 100 µM (inactive)
- GI50 [4]: > 100 µM (inactive)
- GI50 [6]: > 100 µM (inactive)
- GI50 [7]: > 100 µM (inactive)
- GI50 [8]: > 100 µM (inactive)
- GI50 [9]: > 100 µM (inactive)
- GI50 [10]: > 100 µM (inactive)
- GI50 [11]: > 100 µM (inactive)
- GI50 [12]: > 100 µM (inactive)
- GI50 [13]: > 100 µM (inactive)
- GI50 [15]: > 100 µM (inactive)
- GI50 [16]: > 100 µM (inactive)
- GI50 [18]: > 100 µM (inactive)
- GI50 [19]: > 100 µM (inactive)
- GI50 [21]: > 100 µM (inactive)
- GI50 [23]: > 100 µM (inactive)
- GI50 [24]: > 100 µM (inactive)
- GI50 [57]: > 100 µM (inactive)
- GI50 [26]: > 100 µM (inactive)
- GI50 [28]: > 100 µM (inactive)
- GI50 [29]: > 100 µM (inactive)
- GI50 [32]: > 100 µM (inactive)
- GI50 [33]: > 100 µM (inactive)
- GI50 [34]: > 100 µM (inactive)
- GI50 [35]: > 100 µM (inactive)
- GI50 [36]: > 100 µM (inactive)
- GI50 [37]: > 100 µM (inactive)
- GI50 [38]: > 100 µM (inactive)
- GI50 [39]: > 100 µM (inactive)
- GI50 [42]: > 100 µM (inactive)
- GI50 [44]: > 100 µM (inactive)
- GI50 [45]: > 100 µM (inactive)
- GI50 [48]: > 100 µM (inactive)
- GI50 [49]: > 100 µM (inactive)
- GI50 [50]: > 100 µM (inactive)
- GI50 [53]: > 100 µM (inactive)
- GI50 [55]: > 100 µM (inactive)
- GI50 [56]: > 100 µM (inactive)

SMILES: CN(c1ccc(C(=O)c2ccc(N(C)S(C)(=O)=O)cc2)cc1)S(C)(=O)=O
- GI50 [3]: > 100 µM (inactive)
- GI50 [5]: 34.5 µM (inactive)
- GI50 [6]: > 100 µM (inactive)
- GI50 [7]: > 100 µM (inactive)
- GI50 [8]: > 100 µM (inactive)
- GI50 [9]: > 100 µM (inactive)
- GI50 [10]: > 100 µM (inactive)
- GI50 [12]: > 100 µM (inactive)
- GI50 [13]: > 100 µM (inactive)
- GI50 [14]: > 100 µM (inactive)
- GI50 [15]: > 100 µM (inactive)
- GI50 [16]: 42.4 µM (inactive)
- GI50 [17]: 94.2 µM (inactive)
- GI50 [18]: > 100 µM (inactive)
- GI50 [19]: 76.4 µM (inactive)
- GI50 [20]: > 100 µM (inactive)
- GI50 [21]: 27.9 µM (inactive)
- GI50 [22]: 59.8 µM (inactive)
- GI50 [24]: > 100 µM (inactive)
- GI50 [25]: 54.6 µM (inactive)
- GI50 [57]: > 100 µM (inactive)
- GI50 [26]: > 100 µM (inactive)
- GI50 [27]: 77.8 µM (inactive)
- GI50 [28]: > 100 µM (inactive)
- GI50 [29]: 14.1 µM (inactive)
- GI50 [30]: > 100 µM (inactive)
- GI50 [31]: > 100 µM (inactive)
- GI50 [32]: > 100 µM (inactive)
- GI50 [33]: 48.9 µM (inactive)
- GI50 [34]: > 100 µM (inactive)
- GI50 [35]: 75.7 µM (inactive)
- GI50 [36]: > 100 µM (inactive)
- GI50 [37]: > 100 µM (inactive)
- GI50 [38]: > 100 µM (inactive)
- GI50 [39]: > 100 µM (inactive)
- GI50 [43]: 83.6 µM (inactive)
- GI50 [44]: > 100 µM (inactive)
- GI50 [45]: > 100 µM (inactive)
- GI50 [47]: > 100 µM (inactive)
- GI50 [48]: > 100 µM (inactive)
- GI50 [49]: 47 µM (inactive)
- GI50 [50]: 49.3 µM (inactive)
- GI50 [51]: > 100 µM (inactive)
- GI50 [53]: 78.2 µM (inactive)
- GI50 [54]: > 100 µM (inactive)
- GI50 [55]: 86.5 µM (inactive)

SMILES: Cc1ccccc1NC(=O)CSc1nnc(Cc2ccccc2)o1
- GI50 [1]: > 100 µM (inactive)
- GI50 [2]: > 100 µM (inactive)
- GI50 [3]: > 100 µM (inactive)
- GI50 [4]: > 100 µM (inactive)
- GI50 [5]: > 100 µM (inactive)
- GI50 [6]: > 100 µM (inactive)
- GI50 [7]: > 100 µM (inactive)
- GI50 [9]: > 100 µM (inactive)
- GI50 [10]: > 100 µM (inactive)
- GI50 [11]: > 100 µM (inactive)
- GI50 [12]: > 100 µM (inactive)
- GI50 [13]: > 100 µM (inactive)
- GI50 [14]: > 100 µM (inactive)
- GI50 [15]: > 100 µM (inactive)
- GI50 [16]: > 100 µM (inactive)
- GI50 [17]: > 100 µM (inactive)
- GI50 [20]: > 100 µM (inactive)
- GI50 [21]: > 100 µM (inactive)
- GI50 [23]: > 100 µM (inactive)
- GI50 [24]: > 100 µM (inactive)
- GI50 [25]: > 100 µM (inactive)
- GI50 [57]: > 100 µM (inactive)
- GI50 [26]: > 100 µM (inactive)
- GI50 [27]: > 100 µM (inactive)
- GI50 [28]: > 100 µM (inactive)
- GI50 [29]: > 100 µM (inactive)
- GI50 [30]: > 100 µM (inactive)
- GI50 [31]: > 100 µM (inactive)
- GI50 [32]: > 100 µM (inactive)
- GI50 [33]: > 100 µM (inactive)
- GI50 [34]: > 100 µM (inactive)
- GI50 [35]: > 100 µM (inactive)
- GI50 [36]: > 100 µM (inactive)
- GI50 [37]: > 100 µM (inactive)
- GI50 [38]: > 100 µM (inactive)
- GI50 [39]: > 100 µM (inactive)
- GI50 [40]: > 100 µM (inactive)
- GI50 [41]: > 100 µM (inactive)
- GI50 [42]: > 100 µM (inactive)
- GI50 [43]: > 100 µM (inactive)
- GI50 [44]: > 100 µM (inactive)
- GI50 [46]: > 100 µM
- GI50 [49]: > 100 µM (inactive)
- GI50 [50]: > 100 µM (inactive)
- GI50 [51]: > 100 µM (inactive)
- GI50 [52]: > 100 µM (inactive)
- GI50 [53]: > 100 µM (inactive)
- GI50 [54]: > 100 µM (inactive)
- GI50 [56]: > 100 µM (inactive)
